Reference: EPA's ToxValDB 9.5 (doi:10.2903/j.efsa.2013.3212)
≈ marks a conversion by molar mass, not a printed value.

Experiments:
Anas platyrhynchos = details: for LD50: oral, mortality
Apis mellifera = details: acute; duration: 48 hours; oral; unspecified; mortality
Canidae = details: chronic; duration: 1 years; oral; Dog Other; hematological
Colinus virginianus = details: reproduction developmental; reproduction
Coturnix japonica = details: acute, oral, mortality
Daphnia magna = details: chronic/long-term; duration: 21 days; reproduction
Oncorhynchus mykiss = details: acute; duration: 96 hours; mortality
Plant = details: not reported; no effects
Pleurozium sp. = details: acute; duration: 72 hours; biomass
Rattus norvegicus = details: for NOAEL: hematological
Tagia sp. = details: acute; duration: 14 days; mortality
Typhlodromus pyri = experiment: LR50; higher = less toxic

`CCCCCCCCCCCCC1=C(OC(C)=O)C(=O)c2ccccc2C1=O` [Acequinocyl] gave an LD50 (Anas platyrhynchos; acute, unspecified) of over 1940 mg/kg, an NOEL (Anas platyrhynchos; reproductive, reproduction) of 7.48 mg/kg and an LD50 (Anas platyrhynchos; short-term, feed) of over 1340 mg/kg. It also gave an LD50 (Apis mellifera) of over 100 µg/piece, an NOAEL (Canidae) of 5 mg/kg-day and an NOEL (Colinus virginianus) of 217 mg/kg-day. It also gave an LD50 (Coturnix japonica; diet) of over 847 mg/kg, an LD50 (Coturnix japonica) of over 1940 mg/kg and an NOEC (Daphnia magna) of 0.00098 mg/L. It also gave an LC50 (Oncorhynchus mykiss) of 65 µg/mL (≈ 169 µM), an LEL (Plant) of 5000 g/ha and an LC50 (Pleurozium sp.) of 0.93 µg/mL (≈ 2.42 µM). For the same compound, the LD50 (Rattus norvegicus; acute, oral, mortality) was over 4860 mg/kg, the NOAEL (Rattus norvegicus; chronic, duration: 2 years) was 2.3 mg/kg-day and the NOAEL (Rattus norvegicus; repeat dose other, oral) was 8 mg/kg-day. It also gave an NOAEL (Rattus norvegicus; reproduction developmental) of 6.9 mg/kg-day, an LC50 (Tagia sp.) of over 1000 mg/kg and an LR50 (Typhlodromus pyri; acute, duration: 7 days, mortality) of 8.52 g/ha. For the same compound, the LR50 (Typhlodromus pyri; not reported, reproduction) was 10 g/ha.
